# Experimental data as given in patent publication US7807648B2, “G-rich polynucleotides for the treatment of Huntington's Disease” (University of Delaware, priority 2005, dated 2010).
# “Also recorded” adds a separate entry of the source.
# Legend:
# polyQ aggregates = details: cited from earlier work; for inhibition of the aggregation process: R6/2 mouse model; for toxicity: mouse, in vivo
# [1] = tested on: Httexon1-eGFP fusion protein aggregation in HEK293 cells; assay: Aggregate formation (green fluorescent foci) in HEK293 cells transfected with p72Q, microscopy; format: cell-based, human; details: for reproducible inhibitory activity: cell-based assay; for inhibition of aggregate formation (number of green fluorescent foci): 150-750 nM
# GST-Q58-Htn = target: T1, GST-Q58-Htn (Homo sapiens, UniProt P42858, INS38QQQQQQQQQQQQQQQQQQQQQQQQQQQQQQQQQQQQQ); assay: Biochemical/immunoblotting filter assay of mutant Htt fragment aggregation; details: for inhibition of Htt aggregation: 1-5 μM concentrations, dose curve FIG. 4; for inhibition of aggregate formation: ODN at 20 μM or 40 μM, FIG. 5/6; for inhibition of aggregate formation / inhibitory activity on aggregation (overall statement): 24 h; for reproducible inhibitory activity: biochemical assay; for inhibitory activity on aggregation (overall statement): concentration not given, 0.5-60 μM tested
# T1 construct: this fragment consists of the amino terminal 171 amino acids with a tract of 58 glutamine residues fused to GST; GST (N, cleaved yes)
# T1 sequence (P42858 with tags, fused parts or gaps with the stated changes limits assumed): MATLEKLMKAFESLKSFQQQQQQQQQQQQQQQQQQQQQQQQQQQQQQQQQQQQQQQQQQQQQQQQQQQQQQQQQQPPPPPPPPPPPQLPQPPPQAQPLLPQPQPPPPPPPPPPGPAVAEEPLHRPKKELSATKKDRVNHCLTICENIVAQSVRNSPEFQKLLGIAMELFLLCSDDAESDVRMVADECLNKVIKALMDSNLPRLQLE
# [2] = tested on: aggregated Htt-eGFP in HEK293 cells; assay: FACS analysis of aggregation in HEK293 cells transfected with p72Q; format: cell-based, human; details: 1 μM and 2.5 μM, 48 hours, FIG. 13
# [3] = co-transfected with p72Q, 48 hours
molecule,measurement,setting,value
Oc1c(I)cc(Cl)c2cccnc12 [Clioquinol],inhibition of the aggregation process,polyQ aggregates,inhibit the aggregation process
same,toxicity,polyQ aggregates,neurotoxicity
HDT: 20-mer with all T's (DNA TTTTTTTTTTTTTTTTTTTT),reproducible inhibitory activity,[1],None
same,inhibition of Htt aggregation,GST-Q58-Htn,unable to detect any Htt aggregate inhibition
same,inhibition of aggregate formation,GST-Q58-Htn,unable to inhibit aggregate formation; also recorded: no inhibition of aggregation was observed
same,reproducible inhibitory activity,GST-Q58-Htn,None
"HDA: 20-mer with all As (DNA AAAAAAAAAAAAAAAAAAAA; listed as DNA, chemistry not given here)",reproducible inhibitory activity,[1],None
same,inhibition of aggregate formation (number of green fluorescent foci),[1]; [3],little effect on the number of aggregates; also recorded: does not appear to inhibit aggregate formation
same,inhibition of Htt aggregation,GST-Q58-Htn,unable to detect any Htt aggregate inhibition
same,inhibition of aggregate formation,GST-Q58-Htn,unable to inhibit aggregate formation; also recorded: no inhibition of aggregation was observed
same,reproducible inhibitory activity,GST-Q58-Htn,None
same,peak of high intensity eGFP (aggregates),[2],little detectable change; also recorded: no significant reduction in aggregates
5′-GGGGGTGGGGGTGGGGTGGGGGT-3′ [T40216],inhibitory activity on aggregation (overall statement),GST-Q58-Htn,effective inhibitors of aggregation; also recorded: capable of inhibiting GST-Q58-Htn aggregation
5′-GGGTGGGTGGGTGGGT-3′ [T30923],inhibition of aggregate formation (number of green fluorescent foci),[1]; [3],could not fully substitute for HDG
same,dose response of aggregation inhibition,GST-Q58-Htn,dose response visible
same,inhibitory activity on aggregation (overall statement),GST-Q58-Htn,effective inhibitors of aggregation; also recorded: capable of inhibiting GST-Q58-Htn aggregation
"HDG 20/2: HDG 20-mer wherein every other G was substituted with a T residue (DNA GTGTGTGTGTGTGTGTGTGT; listed as DNA, chemistry not given here)",activity of HDG variants with T residues inserted,"[1]; co-transfected with p72Q, 48 hours, FIG. 11",None of these molecules were found to be effective inhibitors of aggregation; also recorded: reduced significantly; also recorded: low level of activity
"5′-GGTGGTGGTGGTTGTGGTGGTGGTGG-3′ (DNA GGTGGTGGTGGTTGTGGTGGTGGTGG; listed as DNA, chemistry not given here) [GRO26B]",inhibitory activity on aggregation (overall statement),GST-Q58-Htn,inhibit Huntington aggregation
5′-TTTGGTGGTGGTGGTTGTGGTGGTGGTGG-3′ [GRO29A],inhibitory activity on aggregation (overall statement),GST-Q58-Htn,inhibit Huntington aggregation
Nc1c(/N=N/c2ccc(-c3ccc(/N=N/c4cc(S(=O)(=O)O)c5ccccc5c4N)cc3)cc2)cc(S(=O)(=O)O)c2ccccc12 [Congo Red],reduction of green fluorescent foci,"[1]; Congo Red added concurrently with p72Q (0.2 μM or 1 μM), higher dosage, FIG. 8",significant reduction
same,inhibition of aggregate formation (number of green fluorescent foci),[1]; [3],displayed effects similar to HDG
same,inhibition of aggregate formation,"[1]; lower dosage of Congo Red (0.2 μM or 1 μM), FIG. 8",only partially inhibited
same,inhibition of the aggregation process,polyQ aggregates,inhibit the aggregation process
same,toxicity,polyQ aggregates,neurotoxicity
